Results published in PMC8191789 (2021).

How the values were obtained:
[1] = system: Myc2345 (DNA, G4) TGAGGGTGGGTAGGGTGGGGAA; test: CD melting (260 nm); conditions: K+ 0.6 mM; potassium phosphate, pH 7; 5 μM DNA, 25 μM PEQ
[2] = system: Myc2345_T23 (DNA, G4) TGAGGGTGGGTAGGGTGGGTAA; test: CD melting (260 nm); conditions: K+ 0.6 mM; potassium phosphate, pH 7; 5 μM DNA, 25 μM PEQ
[3] = system: Myc2345 (DNA, G4) TGAGGGTGGGTAGGGTGGGGAA; test: NMR solution structure; conditions: K+ 10 mM (potassium phosphate); pH 7.0; PEQ:DNA 3:1; end-stacking on 5'- and 3'-tetrads
[4] = system: Myc2345_T23 (DNA, G4) TGAGGGTGGGTAGGGTGGGTAA; test: NMR solution structure; conditions: K+ 10 mM (potassium phosphate); pH 6.5; PEQ:DNA 3:1; end-stacking on 5'- and 3'-tetrads
[5] = system: 3'-TAMRA-labeled Myc2345_T23 (DNA, G4) TGAGGGTGGGTAGGGTGGGTAA; test: TAMRA fluorescence quenching titration; conditions: K+ (25 mM potassium phosphate, 75 mM KCl); pH 7, 25°C; 100 nM DNA
[6] = system: Myc2345 (DNA, G4) TGAGGGTGGGTAGGGTGGGGAA; test: fluorescence competition (TAMRA quenching restored by unlabeled DNA); conditions: K+ (25 mM potassium phosphate, 75 mM KCl); pH 7, 25°C; C50 is concentration of competing unlabeled DNA; 100 nM 3'-TAMRA-Myc2345_T23, PEQ 10:1
[7] = system: Myc2345_T23 (DNA, G4) TGAGGGTGGGTAGGGTGGGTAA; test: as above; conditions: K+ (25 mM potassium phosphate, 75 mM KCl); pH 7, 25°C; C50 is concentration of competing unlabeled DNA; 100 nM 3'-TAMRA-Myc2345_T23, PEQ 10:1

## COc1cc(/C=C/c2cc(C(N)=O)c3ccccc3[n+]2C)ccc1O
[1]
  ΔTm: 20.1 ± 0.6 °C
[2]
  ΔTm: 21.1 ± 1.3 °C
[3]
  binding: yes
[4]
  binding: yes
[5]
  binding: yes
[6]
  C50: 4.86 µM
[7]
  C50: 3.71 µM
